In one data set the target is GST-tagged PTPN2 protein (Homo sapiens (Human), UniProt P17706). Description: Primary assay of PTPN2 enzymatic activity inhibition (DiFMUP fluorescence). The data set is classed as biochemical. The following applies: PTPN2 0.004 ng/μL, DiFUMP substrate 2 μM, 60 min at rt. The protocol:
Compound activity was determined using GST-tagged PTPN2 protein (Cat #31592, ActiveMotif) (SEQ ID NO: 1) in an in vitro enzymatic reaction. The enzymatic reaction was carried out in assay buffer (50 mM HEPES Na salt pH 7.2-7.4, 2 mM EDTA, 100 mM NaCl, 52 ng/μL BSA, and 6 mM DTT). The compounds were dispensed on a 384 well Diamond Well Plate (Axigen, Cat #P-384-120SQ-C-S) using the Biomek FX liquid handling system at 100× solutions of compounds in DMSO. 2×PTPN2 (final concentration 0.004 ng/μL) was prepared in 1× Assay buffer and 25 μL of mixture per well was added into Reaction plate (Optiplate, black, Perkin Elmer, Cat #6007270). Add 25 μL of 1× buffer to Ctrl- (Substrate w/o PTPN2) wells followed by centrifugation at 100 g for 1 min. Next step the Compounds were added to Reaction plate using Biomek station via following steps: 3 μl of 100× compounds (in DMSO) were mixed with 27 μL of Assay Buffer, then 5 μL of this mixture was added to Reaction plate with 25 μL of PTPN2 Mix. Plates were centrifuged for 1 min at 100 g and incubated for another 10 min at rt. Finally, 20 μL of 2.5× Substrate (DiFUMP, Invitrogen™ Cat #D6567) mix was added into appropriate wells of Reaction plate to the final concentration of 2 μM, plate was centrifuged at 100 g for 1 min followed by incubation at rt for 60 min, and the Fluorescence Intensity was measured using a Microplate Reader (ClarioStar Plus, excitation 360 nm, emission 450 nm). The % inhibition was then used to calculate the Ki values. The Ki values are shown in Table A, wherein “A” corresponds to Ki<1.0 nm, “B” corresponds to 1.0 nm≤Ki<5.0 nm, “C” corresponds to 5.0 nm≤Ki<10.0 nm, “D” corresponds to 10.0 nm≤Ki<50.0 nm, and “E” corresponds to 50.0 nm≤Ki<100.0 nm, and “F” corresponds to 100.0 nm≤Ki.

A short description of data set [1]: Pharmacokinetic (PK) study in mice, oral bioavailability. The data set is classed as in vivo, Male CD-1 mice. The following applies: 10 mg/kg PO vs 2 mg/kg IV, 10% Ethanol, 30% PEG-400, 60% Phosal-50PG. As for the experimental part: Pharmacokinetic (PK) study in mice: Male CD-1 mice obtained from Charles River GmbH (Sulzfeld, Germany) with body weight ranging between 30 g to 40 g were used in the PK studies. Group of 12 mice were given a 2 mg/kg intravenous bolus (IV) dose of test article as a solution in 20% HP-beta-CD, and another group of 9 mice were given a 10 mg/kg oral (PO) dose of test article as a solution or suspension in [10% ethanol, 30% PEG-400 and 60% Phosal-50PG]. Blood samples (˜200 μL per time point) were collected twice from each animal—from orbital sinus and by cardiopuncture at 0.083, 0.25, 0.5, 1, 2, 4, 8 and 24 hours after IV administration, and at 0.5, 1, 2, 4, 8 and 24 hours after PO administration, 3 mice/time point. Blood samples were collected in tubes with Na-EDTA 0.5 M solution (1:10) and centrifuged for 10 min at 10,000 rpm at 2 to 8° C. to harvest plasma. Plasma samples were stored at −80° C. until LC/MS/MS analysis. Concentration in each plasma sample was determined by a non-validated LC/MS/MS. Data is acquired using multiple reaction monitoring (MRM) with specific transitions monitored for each compound. Pharmacokinetic Analysis: PK parameters were calculated by non-compartmental methods as described in Gibaldi and Perrier (Gibaldi and Perrier, 1982) using Phoenix® WinNonlin® version 6.3 (Certara L.P.). Following PO administration, percent bioavailability (Fabs) was determined by dividing the dose normalized mean area under the plasma concentration-time curve, extrapolated to the last time point (AUClast) obtained following PO dose by the mean dose normalized AUC of the animals dosed by IV injection. All PK parameters are presented as mean±standard deviation (SD). PK studies were conducted in mice for exemplary compounds of Formula (I). The percent bioavailability (Fabs) values determined are listed in Table C for certain compounds, together with the dosage, vehicle and form used in the studies.

The subject of data set [2] is B16F10 mouse melanoma cells. In words: Tumor cells B16F10 cellular growth IFNγ-induced inhibition assay (CellTiter-Glo). It counts as cell-based. The following applies: for IC50: B16-F10, 72 h, 3 days of incubation; for inhibition at 100 µM: B16-F10, B16F10, 100 μM compound. The protocol:
B16F10 mouse melanoma cells (ATCC Cat #CRL-6475) were seeded at a density of 500 cells per well in a 384-well clear bottom plate (Corning Cat #3712, Corning, N.Y.) in 40 μL total volume of DMEM+10% FBS (PanEco Cat #C420, Russia and Sigma Cat #F4135, St. Louis, MO). Cells were allowed to adhere overnight at 37° C., 5% CO2. On the following day, 250× solutions of compounds in DMSO (Sigma Cat #D2650) were prepared into Cmpnds plate (Diamond Well Plate, Axigen, Cat #P-384-120SQ-C-S) (final concentration of 1×) and DMSO only controls were included. Dilution Plate (Diamond Well Plate (Axigen, Cat #P-384-120SQ-C-S) was prepared by adding 49 μL of culture medium per well: half of the plate with culture medium only, half with culture medium+IFNγ (5 ng/ml). A 1 μL aliquot of 250× compounds (Cmpnds plate) was added to 49 μL of culture medium (Dilution plate), then a 10 μL aliquot of the mixture was transferred to Reaction plate with 40 μL of cells followed by centrifugation at 240 g for 1 min. After 3 days of incubation, 10 μL of CellTiter-Glo (Promega) was added to the cells, plates were centrifuged at 240 g for 1 min, and luminescence signal was measured. For each compound, the percent growth inhibition at every compound dose level was calculated relative to the “DMSO/with IFNγ” control and used to determine the IC50.

[3] abbreviates: B16F10, no IFNγ, read-out: IC50 no IFNγ.
[4] abbreviates: B16F10, with IFNγ, read-out: IC50 + IFNγ.
Where [5] appears, read: no IFNγ, read-out: % Growth Inhibition at 100 μM no IFNγ.
[6] abbreviates: with IFNγ, read-out: % Growth Inhibition at 100 μM + IFNγ.

Like-named read-outs stand apart in the source and are kept apart here.

What is called Ki is a dissociation constant, usually derived from enzyme kinetics or from competition with a known ligand. Lower therefore signals higher affinity. As usually defined, the IC50 is the point on the concentration scale where inhibition reaches its midpoint. Usually inhibition stands for the share of the control response that was lost under treatment.

Chain of GST-tagged PTPN2 protein (P17706 whole entry): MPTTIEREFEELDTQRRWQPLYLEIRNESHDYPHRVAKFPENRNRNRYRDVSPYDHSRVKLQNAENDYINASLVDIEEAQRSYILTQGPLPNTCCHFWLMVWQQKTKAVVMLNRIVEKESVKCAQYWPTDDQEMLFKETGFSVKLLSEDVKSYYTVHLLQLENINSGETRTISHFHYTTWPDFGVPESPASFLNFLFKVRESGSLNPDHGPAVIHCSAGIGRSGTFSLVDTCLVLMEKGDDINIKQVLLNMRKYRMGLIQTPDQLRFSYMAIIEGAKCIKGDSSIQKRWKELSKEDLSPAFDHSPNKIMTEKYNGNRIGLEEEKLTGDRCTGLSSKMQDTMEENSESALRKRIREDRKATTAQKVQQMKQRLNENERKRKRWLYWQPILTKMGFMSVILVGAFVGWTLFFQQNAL

Regarding `COc1cc(O)nc(Nc2cc(O)c(N3CC(=O)NS3(=O)=O)c(F)c2)n1` [Compound 9, 5-[2-fluoro-6-hydroxy-4-[(4-hydroxy-6-methoxy-pyrimidin-2-yl)amino]phenyl]-1,1-dioxo-1,2,5-thiadiazolidin-3-one], at GST-tagged PTPN2 protein, the Ki is under 0.001 µM. Moreover, in data set [1] (form Solution), the “Fabs, %” value is 10.4%. In addition, the half-inhibitory concentration (IC50) in data set [2] (setting [3]) is over 100 µM; in data set [2] (setting [4]) it was 5 to 10 µM. Further, the inhibition at 100 µM in data set [2] (setting [5]) lay within 10 to 50%; in data set [2] (setting [6]), 75 to 100%.
As for `O=C1CN(c2c(O)cc(Nc3nccc(O)n3)cc2F)S(=O)(=O)N1` [Compound 7, 5-[2-fluoro-6-hydroxy-4-[(4-hydroxypyrimidin-2-yl)amino]phenyl]-1,1-dioxo-1,2,5-thiadiazolidin-3-one], the Ki at GST-tagged PTPN2 protein was 0.001 to 0.005 µM. Also, in data set [1] (form Suspension), the “Fabs, %” value is reported as 6.1%. In addition, the IC50 in data set [2] (setting [3]) is over 100 µM; in data set [2] (setting [4]), 5 to 10 µM. Also, the values for the inhibition at 100 µM in data set [2] (setting [5]) and in data set [2] (setting [6]) were 10 to 50% and 75 to 100%, respectively.
On GST-tagged PTPN2 protein, `CC1CCN=C(Nc2cc(O)c(N3CC(=O)NS3(=O)=O)c(F)c2)N1` (stereo not drawn) [Compound 3, 5-[2-fluoro-6-hydroxy-4-[(6-methyl-1,4,5,6-tetrahydropyrimidin-2-yl)amino]phenyl]-1,1-dioxo-1,2,5-thiadiazolidin-3-one] registered an inhibitory constant (Ki) of 0.01 to 0.05 µM. Besides, the “Fabs, %” value in data set [1] (form Solution) was determined as 12.5%. For the same compound, the IC50 was 10 to 50 µM in data set [2] (setting [3]) and 5 to 10 µM in data set [2] (setting [4]). For the same compound, the inhibition at 100 µM lay in the range of 10 to 50% in data set [2] (setting [5]) and 50 to 75% in data set [2] (setting [6]).

Values taken from patent publication US20250313554A1, “PTPN2 INHIBITORS” (Ness Therapeutics, Inc., priority 2022, published 2025).
